The target of the assay is JAK1 (Homo sapiens, UniProt P23458). The experiment in a line: Biochemical Kinase Assay (JAK), 33P-ATP filter-binding. The settings on record: Biochemical Kinase Inhibition Assay; potency level of IC50; read-out: JAK1 (range). How it is done: Biochemical Kinase Assay Protocol (JAK) • Reagent: Base Reaction buffer; 20 mM Hepes (pH 7.5), 10 mM MgCl2, 1 mM EGTA, 0.02% Brij™ 35, 0.02 mg/ml BSA, 0.1 mM Na3VO4, 2 mM DTT, 1% DMSO, where required cofactors were added individually to each kinase reaction.
Chain of JAK1 (P23458 whole entry, species assumed): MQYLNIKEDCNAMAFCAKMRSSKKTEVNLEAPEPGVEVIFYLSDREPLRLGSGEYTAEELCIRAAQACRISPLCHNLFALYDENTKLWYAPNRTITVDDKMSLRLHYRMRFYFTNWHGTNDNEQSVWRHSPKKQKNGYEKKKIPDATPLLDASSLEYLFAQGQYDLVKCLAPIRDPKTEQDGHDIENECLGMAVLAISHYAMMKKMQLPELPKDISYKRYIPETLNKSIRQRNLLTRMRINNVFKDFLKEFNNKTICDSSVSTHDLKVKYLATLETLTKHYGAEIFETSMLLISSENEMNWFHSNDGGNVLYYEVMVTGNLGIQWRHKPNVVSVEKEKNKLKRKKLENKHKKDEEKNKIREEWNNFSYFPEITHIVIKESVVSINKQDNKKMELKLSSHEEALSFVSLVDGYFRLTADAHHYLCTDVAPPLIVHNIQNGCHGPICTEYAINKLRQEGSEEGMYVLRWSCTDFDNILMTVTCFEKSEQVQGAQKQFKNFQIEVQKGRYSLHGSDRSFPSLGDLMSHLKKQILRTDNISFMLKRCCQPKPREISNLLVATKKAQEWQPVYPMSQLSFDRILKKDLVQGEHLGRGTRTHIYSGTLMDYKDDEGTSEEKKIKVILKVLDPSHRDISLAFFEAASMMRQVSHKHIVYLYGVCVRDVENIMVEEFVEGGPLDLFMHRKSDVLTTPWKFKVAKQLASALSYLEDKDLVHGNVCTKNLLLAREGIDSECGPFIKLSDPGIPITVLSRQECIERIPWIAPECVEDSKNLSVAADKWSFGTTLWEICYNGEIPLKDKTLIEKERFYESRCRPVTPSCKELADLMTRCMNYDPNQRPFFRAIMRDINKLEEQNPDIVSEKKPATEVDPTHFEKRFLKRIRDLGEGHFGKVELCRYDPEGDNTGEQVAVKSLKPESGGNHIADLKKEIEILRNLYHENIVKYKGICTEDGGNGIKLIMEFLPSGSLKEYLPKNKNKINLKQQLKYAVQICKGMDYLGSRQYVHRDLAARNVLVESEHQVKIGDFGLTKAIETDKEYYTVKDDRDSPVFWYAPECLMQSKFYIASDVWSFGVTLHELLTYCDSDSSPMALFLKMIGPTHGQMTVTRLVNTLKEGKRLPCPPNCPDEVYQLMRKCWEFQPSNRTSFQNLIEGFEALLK
Reaction Procedure: • 1. Prepared indicated substrate in freshly prepared Base Reaction Buffer • 2. Delivered any required cofactors to the substrate solution above • 3. Delivered indicated kinase into the substrate solution and gently mix • 4. Delivered compounds in DMSO into the kinase reaction mixture by Acoustic technology (Echo550; nanoliter range), incubated for 20 minutes at room temperature • 5. Delivered 33P-ATP into the reaction mixture to initiate the reaction. • 6. Incubated kinase reaction for 2 hours at room temperature • 7. Reactions were spotted onto P81 ion exchange paper • 8. Detected kinase activity by filter-binding method.
Compounds according to the present invention were tested in the Biochemical Kinase Assay Protocol. The results are provided below in Table 1, wherein the potency levels A, B, and C in the columns labeled JAK1 (range) correspond to IC50 as follows: A<10 nM; B=10-50 nM and C>50 nM. The Example Number entries formatted ##a represent stereoisomer one and entries formatted ##b represent stereoisomer two.
For `CC(C)C1=Cc2cc(Nc3nn([C@@H]4CCCC[C@H]4C#N)cc3C(N)=O)ccc2OB1O` (relative stereo) [Example 49, 1-(trans-2-cyanocyclohexyl)-3-[(2-hydroxy-3-isopropyl-1,2-benzoxaborinin-6-yl)amino]pyrazole-4-carboxamide], the IC50 was < 10 nM.

Regarding `CC(C)C1=Cc2cc(Nc3nn([C@@H]4CCC[C@H]4C#N)cc3C(N)=O)ccc2OB1O` (relative stereo) [Example 50, 1-(trans-2-cyanocyclopentyl)-3-[(2-hydroxy-3-isopropyl-1,2-benzoxaborinin-6-yl)amino]pyrazole-4-carboxamide], the IC50 was < 10 nM.

`N#C[C@@H]1CCOC[C@H]1n1cc(C(N)=O)c(Nc2ccc3c(c2F)C=CB(O)O3)n1` (relative stereo) [Example 54, 1-(trans-4-cyanotetrahydro-2H-pyran-3-yl)-3-[(5-fluoro-2-hydroxy-1,2-benzoxaborinin-6-yl)amino]pyrazole-4-carboxamide]: the IC50 is 10 to 50 nM.

In the case of `CCC1=Cc2cc(Nc3nn([C@@H]4COCC[C@H]4C#N)cc3C(N)=O)ccc2OB1O` (relative stereo) [Example 56, 1-(trans-4-cyanotetrahydro-2H-pyran-3-yl)-3-[(3-ethyl-2-hydroxy-1,2-benzoxaborinin-6-yl)amino]pyrazole-4-carboxamide], the IC50 is < 10 nM.

Turning to `N#C[C@@H]1CCOC[C@H]1n1cc(C(N)=O)c(Nc2ccc3c(c2)C2CC2B(O)O3)n1` (relative stereo) [Example 57, 1-(trans-4-cyanotetrahydro-2H-pyran-3-yl)-3-[(2-hydroxy-1a,7b-dihydro-1H-cyclopropa[c][1,2]benzoxaborinin-6-yl)amino]pyrazole-4-carboxamide], the IC50 was < 10 nM.

As to `CC1=CB(O)Oc2ccc(Nc3nn(C4COCCC4C#N)cc3C(N)=O)cc21` (single isomer, unassigned) [Example 3a, 1-[trans-4-cyanotetrahydro-2H-pyran-3-yl]-3-[(2-hydroxy-4-methyl-1,2-benzoxaborinin-6-yl)amino]pyrazole-4-carboxamide (stereoisomerone)], the IC50 is < 10 nM.

As for `CC1=CB(O)Oc2ccc(Nc3nn(C4COCCC4C#N)cc3C(N)=O)cc21` (single isomer, unassigned) [Example 3b, 1-[trans-4-cyanotetrahydropyran-3-yl]-3-[(2-hydroxy-4-methyl-1,2-benzoxaborinin-6-yl)amino]pyrazole-4-carboxamide (stereoisomer two)], the IC50 fell in the range of 10 to 50 nM.

For `Cc1cc(Nc2nn(C3COCCC3C#N)cc2C(N)=O)cc2c1B(O)OC2` (single isomer, unassigned) [Example 6a, 1-[trans-4-cyanotetrahydropyran-3-yl]-3-[(1-hydroxy-7-methyl-3H-2,1-benzoxaborol-5-yl)amino] pyrazole-4-carboxamide (stereoisomerone)], the IC50 was < 10 nM.

On to `Cc1cc(Nc2nn(C3COCCC3C#N)cc2C(N)=O)cc2c1B(O)OC2` (single isomer, unassigned) [Example 6b, 1-[trans-4-cyanotetrahydropyran-3-yl]-3-[(1-hydroxy-7-methyl-3H-2,1-benzoxaborol-5-yl)amino]pyrazole-4-carboxamide (stereoisomer two)], for which the IC50 is 10 to 50 nM.

With `N#C[C@@H]1CCOC[C@H]1n1cc(C(N)=O)c(Nc2cc(Cl)c3c(c2)C=CB(O)O3)n1` (single isomer, unassigned) [Example 13a, 3-[(8-chloro-2-hydroxy-1,2-benzoxaborinin-6-yl)amino]-1-[trans-4-cyanotetrahydro-2H-pyran-3-yl]pyrazole-4-carboxamide], the IC50 was < 10 nM.

Regarding `N#C[C@@H]1CCOC[C@H]1n1cc(C(N)=O)c(Nc2cc(Cl)c3c(c2)C=CB(O)O3)n1` (single isomer, unassigned) [Example 13b, 3-[(8-chloro-2-hydroxy-1,2-benzoxaborinin-6-yl)amino]-1-[trans-4-cyanotetrahydro-2H-pyran-3-yl]pyrazole-4-carboxamide], the IC50 was < 10 nM.

Take `CC1=Cc2cc(Nc3nn([C@@H]4COCC[C@H]4C#N)cc3C(N)=O)cc(F)c2OB1O` (single isomer, unassigned) [Example 14a, 1-[trans-4-cyanotetrahydro-2H-pyran-3-yl]-3-[(8-fluoro-2-hydroxy-3-methyl-1,2-benzoxaborinin-6-yl)amino]pyrazole-4-carboxamide]: the IC50 is < 10 nM.

On to `CC1=Cc2cc(Nc3nn([C@@H]4COCC[C@H]4C#N)cc3C(N)=O)cc(F)c2OB1O` (single isomer, unassigned) [Example 14b, 1-[trans-4-cyanotetrahydro-2H-pyran-3-yl]-3-[(8-fluoro-2-hydroxy-3-methyl-1,2-benzoxaborinin-6-yl)amino]pyrazole-4-carboxamide], for which the IC50 lay in the range of 10 to 50 nM.

On to `N#C[C@@H]1CCOC[C@H]1n1cc(C(N)=O)c(Nc2ccc3c(c2)B(O)OC3)n1` (single isomer, unassigned) [Example 16a, 1-(trans-4-cyanotetrahydro-2H-pyran-3-yl)-3-((1-hydroxy-1,3-dihydrobenzo[c][1,2]oxaborol-6-yl)amino)-1H-pyrazole-4-carboxamide], for which the IC50 is > 50 nM.

Turning to `N#C[C@@H]1CCOC[C@H]1n1cc(C(N)=O)c(Nc2ccc3c(c2)B(O)OC3)n1` (single isomer, unassigned) [Example 16b, 1-(trans-4-cyanotetrahydro-2H-pyran-3-yl)-3-((1-hydroxy-1,3-dihydrobenzo[c][1,2]oxaborol-6-yl)amino)-1H-pyrazole-4-carboxamide], the IC50 was < 10 nM.

For the compound `Cc1c(Nc2nn([C@@H]3COCC[C@H]3C#N)cc2C(N)=O)ccc2c1C=CB(O)O2` (single isomer, unassigned) [Example 17a, 1-[trans-4-cyanotetrahydro-2H-pyran-3-yl]-3-[(2-hydroxy-5-methyl-1,2-benzoxaborinin-6-yl)amino]pyrazole-4-carboxamide], the IC50 is > 50 nM.

As to `Cc1c(Nc2nn([C@@H]3COCC[C@H]3C#N)cc2C(N)=O)ccc2c1C=CB(O)O2` (single isomer, unassigned) [Example 17b, 1-[trans-4-cyanotetrahydropyran-3-yl]-3-[(2-hydroxy-5-methyl-1,2-benzoxaborinin-6-yl)amino]pyrazole-4-carboxamide], the IC50 was > 50 nM.

For `CC1=C(C)c2cc(Nc3nn([C@@H]4COCC[C@H]4C#N)cc3C(N)=O)cc(C)c2OB1O` (single isomer, unassigned) [Example 23a, 1-[trans-4-cyanotetrahydro-2H-pyran-3-yl]-3-[(2-hydroxy-3,4,8-trimethyl-1,2-benzoxaborinin-6-yl)amino]pyrazole-4-carboxamide], the IC50 is < 10 nM.

For the compound `CC1=C(C)c2cc(Nc3nn([C@@H]4COCC[C@H]4C#N)cc3C(N)=O)cc(C)c2OB1O` (single isomer, unassigned) [Example 23b, 1-[trans-4-cyanotetrahydro-2H-pyran-3-yl]-3-[(2-hydroxy-3,4,8-trimethyl-1,2-benzoxaborinin-6-yl)amino]pyrazole-4-carboxamide], the IC50 was > 50 nM.

Consider `Cc1cc(Nc2nn([C@@H]3COCC[C@H]3C#N)cc2C(N)=O)cc2c1OB(O)C=C2` (single isomer, unassigned) [Example 27a, 1-[trans-4-cyanotetrahydropyran-3-yl]-3-[(2-hydroxy-8-methyl-1,2-benzoxaborinin-6-yl)amino]pyrazole-4-carboxamide], for which the IC50 was in the range of 10 to 50 nM.

With `Cc1cc(Nc2nn([C@@H]3COCC[C@H]3C#N)cc2C(N)=O)cc2c1OB(O)C=C2` (single isomer, unassigned) [Example 27b, 1-[trans-4-cyanotetrahydropyran-3-yl]-3-[(2-hydroxy-8-methyl-1,2-benzoxaborinin-6-yl)amino]pyrazole-4-carboxamide], the IC50 is < 10 nM.

Turning to `N#C[C@@H]1CCOC[C@H]1n1cc(C(N)=O)c(Nc2cc3c(c(C(F)(F)F)c2)OB(O)C=C3)n1` (single isomer, unassigned) [Example 28a, 1-[trans-4-cyanotetrahydro-2H-pyran-3-yl]-3-[[2-hydroxy-8-(trifluoromethyl)-1,2-benzoxaborinin-6-yl]amino]pyrazole-4-carboxamide], the IC50 is > 50 nM.

For the compound `N#C[C@@H]1CCOC[C@H]1n1cc(C(N)=O)c(Nc2cc3c(c(C(F)(F)F)c2)OB(O)C=C3)n1` (single isomer, unassigned) [Example 28b, 1-[trans-4-cyanotetrahydro-2H-pyran-3-yl]-3-[[2-hydroxy-8-(trifluoromethyl)-1,2-benzoxaborinin-6-yl]amino]pyrazole-4-carboxamide], the IC50 was < 10 nM.

In the case of `CC(C)C1=CB(O)Oc2ccc(Nc3nn([C@@H]4COCC[C@H]4C#N)cc3C(N)=O)cc21` (single isomer, unassigned) [Example 30a, 1-[trans-4-cyanotetrahydro-2H-pyran-3-yl]-3-[(2-hydroxy-4-isopropyl-1,2-benzoxaborinin-6-yl)amino]pyrazole-4-carboxamide], the IC50 is > 50 nM.

Consider `CC(C)C1=CB(O)Oc2ccc(Nc3nn([C@@H]4COCC[C@H]4C#N)cc3C(N)=O)cc21` (single isomer, unassigned) [Example 30b, 1-[trans-4-cyanotetrahydro-2H-pyran-3-yl]-3-[(2-hydroxy-4-isopropyl-1,2-benzoxaborinin-6-yl)amino]pyrazole-4-carboxamide], for which the IC50 was < 10 nM.

The values above are taken from patent US11827657B2, “Boron containing pyrazole compounds, compositions comprising them, methods and uses thereof” (BOEHRINGER INGELHEIM ANIMAL HEALTH USA INC., priority 2020, dated 2023).
